Source: ChEMBL document CHEMBL2157967, “Chemotherapy of leishmaniasis. Part XI: synthesis and bioevaluation of novel isoxazole containing heteroretinoid and its amide derivatives” (2012)
Calls of active or inactive are those of the source. No cut-off for these calls is given here.

tested on: Leishmania donovani; assay: Antileishmanial activity against Leishmania donovani MHOM/IN/80/Dd8 amastigotes infected in golden hamster assessed as inhibition of parasite growth at 50 mg/kg, ip for 5 days post infection measured on day 7 by Giemsa staining; assay type: functional; details: not given

| Compound | growth inhibition (GI) |
| --- | --- |
| CC1=CCCC(C)(C)C1/C=C/c1cc(C(=O)N2CCOCC2)no1 (stereo not given) | inactive |
| Sodium stibogluconate | 89% |
| CCOC(=O)C(=O)CC(=O)/C=C/C1C(C)=CCCC1(C)C (stereo not given) | inactive |
| CC1=CCCC(C)(C)C1/C=C/c1cc(C(=O)N2CCN(c3ccccc3)CC2)no1 (stereo not given) | inactive |

same assay, conditions: Leishmania donovani, MHOM/IN/80/Dd8, ip, route intraperitoneal, read-out: GI

| Compound | inhibition in vivo at 50 mg/kg |
| --- | --- |
| CC1=CCCC(C)(C)C1/C=C/c1cc(C(=O)Nc2ccccc2)no1 (stereo not given) | 74% |
| CC1=CCCC(C)(C)C1/C=C/c1cc(C(=O)NN)no1 (stereo not given) | 50% |
| CC1=CCCC(C)(C)C1/C=C/c1cc(C(=O)NO)no1 (stereo not given) | 65% |
| CCOC(=O)c1cc(/C=C/C2C(C)=CCCC2(C)C)on1 (stereo not given) | 76% |
| CC1=CCCC(C)(C)C1/C=C/c1cc(C(=O)Nc2ccc(Cl)cc2)no1 (stereo not given) | 63% |
| COc1ccc(NC(=O)c2cc(/C=C/C3C(C)=CCCC3(C)C)on2)cc1 (stereo not given) | 58% |
| CC1=CCCC(C)(C)C1/C=C/c1cc(C(=O)NC2CCCCC2)no1 (stereo not given) | 70% |
| CC1=CCCC(C)(C)C1/C=C/c1cc(C(=O)O)no1 (stereo not given) | 45% |
| NC[C@@H]1O[C@H](O[C@H]2[C@@H](O)[C@H](O[C@@H]3[C@@H](O)[C@H](N)C[C@H](N)[C@H]3O[C@H]3O[C@H](CO)[C@@H](O)[C@H](O)[C@H]3N)O[C@@H]2CO)[C@H](N)[C@@H](O)[C@@H]1O [PAROMOMYCIN] | 46.7% |

same assay, conditions: route intraperitoneal

| Compound | growth inhibition (GI) |
| --- | --- |
| CC1=CCCC(C)(C)C1/C=C/c1cc(C(=O)N[O-])no1.[Na+] (stereo not given) | 71% |
| CC1=CCCC(C)(C)C1/C=C/c1cc(C(=O)[N-]N)no1.[Na+] (stereo not given) | 70% |
